Experimental data published in article PMC11588130 (Proceedings of the National Academy of Sciences of the …, 2024).

Biological target: T1, human FXR (cotransfected with RXR) (Homo sapiens, UniProt Q96RI1)
T1 sequence (Q96RI1 1-486): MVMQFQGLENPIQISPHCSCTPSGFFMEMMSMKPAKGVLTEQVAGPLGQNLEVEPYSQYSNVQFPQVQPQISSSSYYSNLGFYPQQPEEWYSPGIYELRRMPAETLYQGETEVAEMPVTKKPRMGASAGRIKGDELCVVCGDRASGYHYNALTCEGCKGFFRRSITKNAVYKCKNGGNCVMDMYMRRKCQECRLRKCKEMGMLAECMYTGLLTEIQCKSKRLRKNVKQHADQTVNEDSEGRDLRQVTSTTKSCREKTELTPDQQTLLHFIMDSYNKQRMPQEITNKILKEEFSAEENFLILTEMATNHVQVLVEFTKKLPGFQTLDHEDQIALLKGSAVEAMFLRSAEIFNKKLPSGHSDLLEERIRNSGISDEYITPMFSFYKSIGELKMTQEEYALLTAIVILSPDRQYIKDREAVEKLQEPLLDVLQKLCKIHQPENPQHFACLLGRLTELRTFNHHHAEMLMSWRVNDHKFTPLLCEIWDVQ
T1 sequence (P19793 1-462 partner): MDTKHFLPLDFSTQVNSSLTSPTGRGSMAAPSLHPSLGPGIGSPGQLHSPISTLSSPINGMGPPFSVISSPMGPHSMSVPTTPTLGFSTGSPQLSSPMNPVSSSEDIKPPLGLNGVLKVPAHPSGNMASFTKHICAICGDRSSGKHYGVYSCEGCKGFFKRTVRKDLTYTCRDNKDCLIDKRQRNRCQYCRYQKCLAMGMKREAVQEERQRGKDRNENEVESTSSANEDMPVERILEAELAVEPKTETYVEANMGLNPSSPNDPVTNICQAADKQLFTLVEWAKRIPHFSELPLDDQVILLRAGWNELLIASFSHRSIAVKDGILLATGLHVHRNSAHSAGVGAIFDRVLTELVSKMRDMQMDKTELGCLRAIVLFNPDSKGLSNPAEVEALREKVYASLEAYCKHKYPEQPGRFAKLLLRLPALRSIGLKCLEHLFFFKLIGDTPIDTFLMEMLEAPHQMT
Experiment: FXRE-luciferase reporter in HEK293
Format: cell-based

## C[C@H](CCC(=O)O)[C@H]1CC[C@H]2[C@@H]3C(=O)C[C@@H]4C[C@H](O)CC[C@]4(C)[C@H]3C[C@H](O)[C@]12C [7-oxo-DCA]
  IC50: 13.8 µM
